Assay results from patent US11634425B2, “Pharmaceutical compounds” (priority 2019, dated 2023).
pEC50: −log10 of the molar value. Read-outs that look alike come from different tables or passages of the source.

Key:
RSV A2 = assay: RSV plaque reduction assay; format: cell-based, respiratory syncytial virus (RSV); details: human respiratory syncytial virus, HepG2, Hep-G2 cells, mean of at least two experiments
How it was run: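 RSV A2 at 100 PFU/well was premixed with eight compound dilutions and added to confluent Hep-G2 monolayers for 2 h at 37 °C. Cells were then kept 2 days under a DMEM/2% FBS/0.8% CMC overlay containing compound. Immunostained plaques were counted relative to virus controls, and EC50 came from 4-parameter fits, averaged over at least two experiments.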

Cell cytotoxicity (CC50) = format: cell-based; details: human; mean of at least two experiments
How it was run: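 Values are means of ≥2 independent runs, rounded to whole units, from 4-parameter variable-slope curve fits. Toxicity measured in Hep-G2 cells run alongside RSV plaque-reduction assays.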

in vitro = in vitro ADME; details: microsomes, pH 7.4, 1 μM compound, 0.5 mg/mL protein, read-out: Liver Microsomal Stability t1/2
Protocol: Compounds were subjected to the following assays to investigate liver microsomal stability and hepatocyte stability.
Microsomal Incubation: Experimental Procedure
Pooled liver microsomes were purchased from a reputable commercial supplier and stored at −80° C. prior to use. Microsomes (final protein concentration 0.5 mg/mL), 0.1 M phosphate buffer pH 7.4 and test compound (final substrate concentration 1 μM; final DMSO concentration 0.25%) were pre-incubated at 37° C. prior to the addition of NADPH (final concentration 1 mM) to initiate the reaction. The final incubation volume was 50 μL. A control incubation was included for each compound tested where 0.1 M phosphate buffer pH 7.4 was added instead of NADPH (minus NADPH). Two control compounds were included with each species. All incubations were performed singularly for each test compound. Each compound was incubated for 0, 5, 15, 30 and 45 min. The control (minus NADPH) was incubated for 45 min only. The reactions were stopped by transferring incubate into acetonitrile at the appropriate time points, in a 1:3 ratio. The termination plates are centrifuged at 3,000 rpm for 20 min at 4° C. to precipitate the protein. Following protein precipitation, the sample supernatants were combined in cassettes of up to 4 compounds, internal standard added, and samples analysed by LC-MS/MS. From a plot of ln peak area ratio (compound peak area/internal standard peak area) against time, the gradient of the line was determined. Subsequently, half-life (t1/2) and intrinsic clearance (CLint) were calculated.

In the case of `O=C(N[C@H]1N=C(c2ccccc2)c2cccc(F)c2NC1=O)c1c(-c2ccc(N3CCOCC3)nc2)nn2cccnc12` [Example 72, N-[(3S)-9-fluoro-2-oxo-5-phenyl-1,3-dihydro-1,4-benzodiazepin-3-yl]-2-(6-morpholin-4-ylpyridin-3-yl)pyrazolo[1,5-a]pyrimidine-3-carboxamide], the pEC50 (RSV A2) was 6.93, the CC50 (Cell cytotoxicity (CC50)) was greater than 25 µM and the half-life at 1 μM (in vitro; dog) was 0.857 h. For the same molecule, the half-life at 1 μM (in vitro; human) was 3 h and the half-life at 1 μM (in vitro; rat) was 2.63 h.

Work on `CC(C)Nc1ccc(-c2nn3cccnc3c2C(=O)N[C@H]2N=C(c3ccccc3)c3cccc(F)c3NC2=O)cn1` [Example 74, N-[(3S)-9-Fluoro-2-oxo-5-phenyl-1,3-dihydro-1,4-benzodiazepin-3-yl]-2-[6-(propan-2-ylamino)pyridin-3-yl]pyrazolo[1,5-a]pyrimidine-3-carboxamide] yielded a pEC50 (RSV A2) of 7.55, a CC50 (Cell cytotoxicity (CC50)) greater than 25 µM and a half-life at 1 μM (in vitro; dog) of 0.725 h. For the same molecule, the half-life at 1 μM (in vitro; human) was 4.4 h and the half-life at 1 μM (in vitro; rat) was 1.17 h.

For `O=C(N[C@H]1N=C(c2ccccc2)c2cccc(F)c2NC1=O)c1c(-c2cnc3[nH]ccc3c2)nn2cccnc12` [Example 75, N-[(3S)-9-Fluoro-2-oxo-5-phenyl-1,3-dihydro-1,4-benzodiazepin-3-yl]-2-(1H-pyrrolo[2,3-b]pyridin-5-yl)pyrazolo[1,5-a]pyrimidine-3-carboxamide], the pEC50 (RSV A2) was 7.36, the CC50 (Cell cytotoxicity (CC50)) was greater than 25 µM and the half-life at 1 μM (in vitro; dog) was 1.45 h. The half-life at 1 μM (in vitro; human) was 11.3 h and the half-life at 1 μM (in vitro; rat) was 0.833 h.

In the case of `Cc1ccc2nc(-c3ccc(F)cn3)c(C(=O)N[C@H]3N=C(c4ccccc4)c4cccc(F)c4NC3=O)n2n1` [Example 78, N-[(3S)-9-fluoro-2-oxo-5-phenyl-1,3-dihydro-1,4-benzodiazepin-3-yl]-2-(5-fluoropyridin-2-yl)-6-methylimidazo[1,2-b]pyridazine-3-carboxamide], the pEC50 (RSV A2) was 7.09, the CC50 (Cell cytotoxicity (CC50)) was greater than 25 µM and the half-life at 1 μM (in vitro; dog) was 4.17 h. It also gave a half-life at 1 μM (in vitro; human) of 3.83 h and a half-life at 1 μM (in vitro; rat) of 0.923 h.

With `CN1C[C@@H]2C[C@H]1CN2c1ccc2nc(-c3ccccc3)c(C(=O)N[C@H]3N=C(c4ccccc4)c4cccc(F)c4NC3=O)n2n1` [Example 80, N-[(3S)-9-fluoro-2-oxo-5-phenyl-1,3-dihydro-1,4-benzodiazepin-3-yl]-6-[(1S,4S)-5-methyl-2,5-diazabicyclo[2.2.1]heptan-2-yl]-2-phenylimidazo[1,2-b]pyridazine-3-carboxamide] the pEC50 (RSV A2) was 7.29, the CC50 (Cell cytotoxicity (CC50)) was 13.8 µM and the half-life at 1 μM (in vitro; dog) was 2.98 h. For the same molecule, the half-life at 1 μM (in vitro; human) was 2.4 h and the half-life at 1 μM (in vitro; rat) was 1.9 h.

For `CN1C[C@H]2C[C@@H]1CN2c1ccc2nc(-c3ccccc3)c(C(=O)N[C@H]3N=C(c4ccccc4)c4cccc(F)c4NC3=O)n2n1` [Example 81, N-[(3S)-9-fluoro-2-oxo-5-phenyl-1,3-dihydro-1,4-benzodiazepin-3-yl]-6-[(1R,4R)-5-methyl-2,5-diazabicyclo[2.2.1]heptan-2-yl]-2-phenylimidazo[1,2-b]pyridazine-3-carboxamide], the pEC50 (RSV A2) was 6.94, the CC50 (Cell cytotoxicity (CC50)) was 8.15 µM and the half-life at 1 μM (in vitro; dog) was 1.88 h. For the same molecule, the half-life at 1 μM (in vitro; human) was 0.488 h and the half-life at 1 μM (in vitro; rat) was 1.49 h.

Molecule `Cc1ccc(-c2nn3cccnc3c2C(=O)N[C@H]2N=C(c3ccccc3)c3ccccc3NC2=O)c(F)n1` [Example 85, 2-(2-Fluoro-6-methylpyridin-3-yl)-N-[(3S)-2-oxo-5-phenyl-1,3-dihydro-1,4-benzodiazepin-3-yl]pyrazolo[1,5-a]pyrimidine-3-carboxamide] has a pEC50 (RSV A2) of 7.24, a CC50 (Cell cytotoxicity (CC50)) greater than 25 µM and a half-life at 1 μM (in vitro; dog) of 1.75 h. The half-life at 1 μM (in vitro; human) was greater than 2.33 h and the half-life at 1 μM (in vitro; rat) was 3.3 h.

With `O=C(N[C@H]1N=C(c2ccccc2)c2ccccc2NC1=O)c1c(-c2ccccc2)nc2cccnn12` [Example 87, N-[(3S)-2-oxo-5-phenyl-1,3-dihydro-1,4-benzodiazepin-3-yl]-2-phenylimidazo[1,2-b]pyridazine-3-carboxamide] the pEC50 (RSV A2) was 7.28, the CC50 (Cell cytotoxicity (CC50)) was greater than 25 µM and the half-life at 1 μM (in vitro; dog) was 1.12 h. For the same molecule, the half-life at 1 μM (in vitro; human) was 68.8 h and the half-life at 1 μM (in vitro; rat) was 1.43 h.

In the case of `O=C(N[C@H]1N=C(c2ccccc2)c2ccccc2NC1=O)c1c(-c2ccc(F)cc2F)nc2cccnn12` [Example 88, 2-(2,4-Difluorophenyl)-N-[(3S)-2-oxo-5-phenyl-1,3-dihydro-1,4-benzodiazepin-3-yl]imidazo[1,2-b]pyridazine-3-carboxamide], the pEC50 (RSV A2) was 7.70, the CC50 (Cell cytotoxicity (CC50)) was greater than 25 µM and the half-life at 1 μM (in vitro; dog) was 1.27 h. It also gave a half-life at 1 μM (in vitro; human) greater than 2.33 h and a half-life at 1 μM (in vitro; rat) of 3.37 h.

Molecule `O=C(N[C@H]1N=C(c2ccccc2)c2cccc(F)c2NC1=O)c1c(-c2ccc(F)cc2F)nc2cccnn12` [Example 89, 2-(2,4-Difluorophenyl)-N-[(3S)-9-fluoro-2-oxo-5-phenyl-1,3-dihydro-1,4-benzodiazepin-3-yl]imidazo[1,2-b]pyridazine-3-carboxamide] has a pEC50 (RSV A2) of 7.72, a CC50 (Cell cytotoxicity (CC50)) greater than 25 µM and a half-life at 1 μM (in vitro; dog) of 18 h. It also gave a half-life at 1 μM (in vitro; human) of 12.3 h and a half-life at 1 μM (in vitro; rat) of 3.1 h.

Work on `Cc1ccc2nc(-c3ccc(F)cc3F)c(C(=O)N[C@H]3N=C(c4ccccc4)c4cccc(F)c4NC3=O)n2n1` [Example 91, 2-(2,4-Difluorophenyl)-N-[(3S)-9-fluoro-2-oxo-5-phenyl-1,3-dihydro-1,4-benzodiazepin-3-yl]-6-methylimidazo[1,2-b]pyridazine-3-carboxamide] yielded a pEC50 (RSV A2) of 7.77, a CC50 (Cell cytotoxicity (CC50)) greater than 25 µM and a half-life at 1 μM (in vitro; dog) of 4.47 h. It also gave a half-life at 1 μM (in vitro; human) of 1.68 h and a half-life at 1 μM (in vitro; rat) of 0.61 h.

`CN1CCN(c2ccc3nc(-c4ccccc4F)c(C(=O)N[C@H]4N=C(c5ccccc5)c5cccc(F)c5NC4=O)n3n2)CC1` [Example 95, N-[(3S)-9-fluoro-2-oxo-5-phenyl-1,3-dihydro-1,4-benzodiazepin-3-yl]-2-(2-fluorophenyl)-6-(4-methylpiperazin-1-yl)imidazo[1,2-b]pyridazine-3-carboxamide] gave a pEC50 (RSV A2) of 7.03, a CC50 (Cell cytotoxicity (CC50)) greater than 21.1 µM and a half-life at 1 μM (in vitro; dog) of 1.11 h. The half-life at 1 μM (in vitro; human) was 0.948 h and the half-life at 1 μM (in vitro; rat) was 0.595 h.

In the case of `Cc1ccc2nc(-c3cccnc3)c(C(=O)N[C@H]3N=C(c4ccccc4)c4cccc(F)c4NC3=O)n2n1` [Example 96, N-[(3S)-9-fluoro-2-oxo-5-phenyl-1,3-dihydro-1,4-benzodiazepin-3-yl]-6-methyl-2-pyridin-3-ylimidazo[1,2-b]pyridazine-3-carboxamide], the pEC50 (RSV A2) was 7.04, the CC50 (Cell cytotoxicity (CC50)) was greater than 25 µM and the half-life at 1 μM (in vitro; dog) was 3.78 h. For the same molecule, the half-life at 1 μM (in vitro; human) was 42.8 h and the half-life at 1 μM (in vitro; rat) was 0.468 h.

Molecule `Cc1ccc2nc(-c3ccncc3F)c(C(=O)N[C@H]3N=C(c4ccccc4)c4cccc(F)c4NC3=O)n2n1` [Example 100, N-[(3S)-9-fluoro-2-oxo-5-phenyl-1,3-dihydro-1,4-benzodiazepin-3-yl]-2-(3-fluoropyridin-4-yl)-6-methylimidazo[1,2-b]pyridazine-3-carboxamide] has a pEC50 (RSV A2) of 7.33, a CC50 (Cell cytotoxicity (CC50)) greater than 25 µM and a half-life at 1 μM (in vitro; dog) of 1.37 h. For the same molecule, the half-life at 1 μM (in vitro; human) was 15.1 h and the half-life at 1 μM (in vitro; rat) was 0.457 h.

In the case of `CCNc1ccc2nc(-c3ccccc3F)c(C(=O)N[C@H]3N=C(c4ccccc4)c4cccc(F)c4NC3=O)n2n1` [Example 106, 6-(Ethylamino)-N-[(3S)-9-fluoro-2-oxo-5-phenyl-1,3-dihydro-1,4-benzodiazepin-3-yl]-2-(2-fluorophenyl)imidazo[1,2-b]pyridazine-3-carboxamide], the pEC50 (RSV A2) was 7.18, the CC50 (Cell cytotoxicity (CC50)) was greater than 25 µM and the half-life at 1 μM (in vitro; dog) was 4.8 h. For the same molecule, the half-life at 1 μM (in vitro; human) was 0.792 h and the half-life at 1 μM (in vitro; rat) was 1.46 h.

With `O=C(N[C@H]1N=C(c2ccccc2)c2cccc(F)c2NC1=O)c1c(-c2ccccc2)nc2cccnn12` [Example 107, N-[(3S)-9-fluoro-2-oxo-5-phenyl-1,3-dihydro-1,4-benzodiazepin-3-yl]-2-phenylimidazo[1,2-b]pyridazine-3-carboxamide] the pEC50 (RSV A2) was 7.43, the CC50 (Cell cytotoxicity (CC50)) was greater than 25 µM and the half-life at 1 μM (in vitro; dog) was 3.12 h. It also gave a half-life at 1 μM (in vitro; human) of 4.97 h and a half-life at 1 μM (in vitro; rat) of 1.46 h.

With `CN1CC(Oc2ccc3nc(-c4ccccc4F)c(C(=O)N[C@H]4N=C(c5ccccc5)c5cccc(F)c5NC4=O)n3n2)C1` [Example 108, N-[(3S)-9-Fluoro-2-oxo-5-phenyl-1,3-dihydro-1,4-benzodiazepin-3-yl]-2-(2-fluorophenyl)-6-(1-methylazetidin-3-yl)oxyimidazo[1,2-b]pyridazine-3-carboxamide] the pEC50 (RSV A2) was 7.08, the CC50 (Cell cytotoxicity (CC50)) was 21.9 µM and the half-life at 1 μM (in vitro; dog) was 2.88 h. The half-life at 1 μM (in vitro; human) was 1.3 h and the half-life at 1 μM (in vitro; rat) was 1.14 h.
